Results as given in patent US4668690A, “1,2,3,4,4a,9b-hexahydro-4a-aminoalkyldibenzofurans useful as analgesics, anticonvulsants or antidepressants” (Hoechst Roussel Pharmaceuticals Inc., priority 1985, dated 1987).
Counter-ions that a name gives are not always drawn. Like-named read-outs stand apart in the source and are kept apart here.

How the values were obtained:
[1] = tested on: phenyl-para-quinone induced writhing; assay: phenyl-para-quinone writhing assay in mice (analgesia); format: in vivo; conditions: for inhibition in vivo at 25 mg/kg: 25 mg/kg subcutaneous; for ED50: read-out: ED50, inhibition of phenyl-para-quinone induced writhing
Text: The compounds of the invention are primarily useful as analgesic, anticonvulsant and antidepressant agents. […] Exptl. Biol. Med., 95, 729 (1953)]. Listed below in Table I is the analgesic effect of some of the compounds of the invention, expressed as percent inhibition of phenyl-para-quinone induced writhing.

[2] = tested on: ptosis of tetrabenazine-induced depression; assay: inhibition of tetrabenazine-induced depression (ptosis) in mice (antidepressant); format: in vivo
[3] = tested on: supra maximal electroshock (extensor tonus); assay: supra maximal electroshock assay (anticonvulsant); format: in vivo, male mice (Charles River, CD-1); conditions: for ED50: Mus musculus, sc, read-out: ED50, anticonvulsant effect (supra maximal electroshock)
[4] = Mus musculus, sc, subcutaneous, mice, 50% inhibition
[5] = subcutaneous, mice, 50% inhibition

CN(CCCOc1ccccc1)CC[C@@]12CCCC[C@@H]1c1ccccc1O2 (relative stereo) [Cis-1,2,3,4,4a,9b-hexahydro-4a-[2-{N-methyl-N-(3-phenoxypropyl)}aminoethyl]dibenzofuran oxalate]
inhibition in vivo at 25 mg/kg ([1]; Mus musculus, sc, mice): 65%

CN(C)C[C@@]12CCCC[C@@H]1c1ccccc1O2.Cl (relative stereo) [Cis-1,2,3,4,4a,9b-hexahydro-4a-dimethylaminomethyldibenzofuran hydrochloride]
ED50 [1, 4]: 21.7 mg/kg

CNCC[C@@]12CCCC[C@@H]1c1ccccc1O2.Cl (relative stereo) [cis-1,2,3,4,4a,9b-Hexahydro-4a-(2-methylaminoethyl)dibenzofuran hydrochloride]
% Inhibition of the ptosis of tetrabenazine-induced depression ([2]; 20.0 mg/kg intraperitoneal): 60%
ED50 [3]: 41.7 mg/kg
ED50 ([1]; Mus musculus, sc): 16.2 mg/kg

CNCCC[C@@]12CCCC[C@@H]1c1ccccc1O2 (relative stereo) [cis-1,2,3,4,4a,9b-Hexahydro-4a-(3-methylaminopropyl)dibenzofuran]
ED50 ([2]; Mus musculus, ip, intraperitoneal, 50% inhibition): 5.9 mg/kg
ED50 [3, 5]: 27.7 mg/kg
inhibition in vivo at 25 mg/kg ([1]; Mus musculus, sc, mice): 58%

CC(C)=CCN(C)CC[C@@]12CCCC[C@@H]1c1ccccc1O2 (relative stereo) [cis-1,2,3,4,4a,9b-Hexahydro-4a-[2-(N-(3-methyl-2-butenyl)-N-methyl)aminoethyl]dibenzofuran oxalate]
% Inhibition of the ptosis of tetrabenazine-induced depression ([2]; 20.0 mg/kg intraperitoneal): 77%

CN(CCc1ccccc1)CC[C@@]12CCCC[C@@H]1c1ccccc1O2 (relative stereo) [cis-1,2,3,4,4a,9b-Hexahydro-4a-[2-(N-methyl-N-phenethyl)aminoethyl]dibenzofuran hydrochloride]
inhibition in vivo at 25 mg/kg ([1]; Mus musculus, sc, mice): 63%

CN(CCCc1ccccc1)CCC[C@@]12CCCC[C@@H]1c1ccccc1O2 (relative stereo) [cis-1,2,3,4,4a,9b-Hexahydro-4a-[3-(N-(3-phenylpropyl)-N-methyl)aminopropyl]dibenzofuran oxalate hydrate]
inhibition in vivo at 25 mg/kg ([1]; Mus musculus, sc, mice): 37%

CN(CCC[C@@]12CCCC[C@@H]1c1ccccc1O2)Cc1ccco1 (relative stereo) [cis-1,2,3,4,4a,9b-Hexahydro-4a-[3-(N-methyl-N-furfuryl)aminopropyl]dibenzofuran oxalate hydrate]
inhibition in vivo at 25 mg/kg ([1]; Mus musculus, sc, mice): 61%

CN(CCC[C@@]12CCCC[C@@H]1c1ccccc1O2)CCc1ccccc1.Cl (relative stereo) [cis-1,2,3,4,4a,9b-Hexahydro-4a-[3-(N-methyl-N-phenethylamino)propyl]dibenzofuran hydrochloride]
% Inhibition, anticonvulsant effect (supra maximal electroshock) ([3]; 25 mg/kg subcutaneous, mice): 50%
ED50 [1, 4]: 20.8 mg/kg

CNC[C@@]12CCCC[C@@H]1c1ccccc1O2.Cl (relative stereo) [cis-1,2,3,4,4a,9b-Hexahydro-4a-methylaminomethyldibenzofuran hydrochloride]
ED50 [3, 5]: 22.5 mg/kg
ED50 [1, 4]: 25.8 mg/kg

c1ccc2c(c1)O[C@]1(CCCN3CCCCC3)CCCC[C@H]21 (relative stereo) [cis-1,2,3,4,4a,9b-hexahydro-4a-(3-piperidinopropyl)dibenzofuran oxalate]
inhibition in vivo at 25 mg/kg ([1]; Mus musculus, sc, mice): 64%

CN(C)CC[C@@]12CCCC[C@@H]1c1ccccc1O2.Cl (relative stereo) [cis-4a-(2-Dimethylaminoethyl)-1,2,3,4,4a,9b-Hexahydrodibenzofuran hydrochloride]
% Inhibition of the ptosis of tetrabenazine-induced depression ([2]; 20.0 mg/kg intraperitoneal): 70%
ED50 [3, 5]: 22.4 mg/kg
inhibition in vivo at 25 mg/kg ([1]; Mus musculus, sc, mice): 67%

CN(C)CCC[C@@]12CCCC[C@@H]1c1ccccc1O2.Cl (relative stereo) [cis-4a-(Dimethylaminopropyl)-1,2,3,4,4a,9b-hexahydrodibenzofuran hydrochloride]
ED50 [3, 5]: 28.1 mg/kg
ED50 [1, 4]: 12.2 mg/kg

CN(C)CCC=C1c2ccccc2CCc2ccccc21 [Amitriptyline, reference compound]
% Inhibition of the ptosis of tetrabenazine-induced depression ([2]; 2.0 mg/kg intraperitoneal, standard): 50%

CNC1=Nc2ccc(Cl)cc2C(c2ccccc2)=[N+]([O-])C1 [Chlorodiazepoxide, reference compound]
% Inhibition, anticonvulsant effect (supra maximal electroshock) ([3]; 8.0 mg/kg subcutaneous, mice, standard): 50%

CN1C(=O)CN=C(c2ccccc2)c2cc(Cl)ccc21 [Diazepam, reference compound]
% Inhibition, anticonvulsant effect (supra maximal electroshock) ([3]; 1.7 mg/kg subcutaneous, mice, standard): 50%

CCC(=O)O[C@](Cc1ccccc1)(c1ccccc1)[C@H](C)CN(C)C [propoxyphene, reference compound]
inhibition in vivo at 3.9 mg/kg ([1]; Mus musculus, sc, read-out: % Inhibition of phenyl-para-quinone induced writhing): 50%

cis-1,2,3,4,4a,9b-Hexahydro-4a-[2-[N-(3-phenylpropyl)-N-methylamino]ethyl]dibenzofuran oxalate hemihydrate
ED50, inhibition of phenyl-para-quinone induced writhing [1, 5]: 7.3 mg/kg
